These results are taken from patent US7235588B2, “Method for reducing hypertension and heart failure” (The Research Foundation of State University of New York, priority 2001, dated 2007).

Structures are written as SMILES.

For assay [1], the system named is hearts subjected to ischemia/reperfusion. The note with it: cited from earlier work.
The test system of the next assay is angiotensinogen mRNA. Description: Angiotensinogen mRNA in hearts subjected to ischemia/reperfusion (primer extension assay). On the set-up: species or system rat. Particulars: 30 min ischemia and 120 min reperfusion. As to the method: Ischemia was induced by a modified Langendorf-reperfusion method in rat hearts. Hearts from adult male rats were randomly divided into 4 groups and subjected to ischemia/reperfusion. In the ischemic group, hearts were perfused with Krebs-Henseleit buffer for 60 minutes, followed by 30 minutes of global ischemia. In the ischemic/reperfused group, hearts were perfused for 60 minutes, followed by 30 minutes of global ischemia and 120 minutes of reperfusion. Control group hearts were perfused for the same lengths of time.
Rat hearts subjected to ischemia/reperfusion were tested to determine whether activation of the renin-angiotensin system, as reflected by an increase in angiotensinogen mRNA, occurs in ischemic injury. The level of angiotensinogen mRNA was analyzed by primer extension assay using gene-specific DNA probes. A DNA primer spanning the complementary sequence of the rat angiotensinogen cDNA between nucleotides 302 and 279 (5′-[…]-3′) SEQ ID NO: 1 was end-labeled and used to evaluate the expression of angiotensinogen mRNA in total RNA isolated from the rat heart. The primer extension protocol was performed according to instructions provided by the supplier (Progema). Rat GAPDH cDNA specific primer was used as control. There was a marked increase in mRNA level after 30 minutes of ischemia and 120 minutes of reperfusion (FIG. 5A). […]

The test system of assay [2] is St-domain/STAT binding activity. Nature of the assay: Electrophoretic gel mobility-shift assay of St-domain/STAT binding in heart nuclear extracts. Also on record: species or system rat. The note with it: hearts, 30 min ischemia/120 min reperfusion. An excerpt:
Nuclear extracts were examined in hearts subjected to global ischemia to determine whether there is enhanced STAT binding activity to the St domain of the angiotensinogen promoter. The nuclear heart extracts were examined by the electrophoretic gel mobility-shift assay that exployed the use of the chemically synthesized oligonucleotide sequence of the St domain. The St-domain DNA probe for protein binding was a double-stranded oligonucleotide containing the sequence 5′-GGGTtcCTGGAAGGG-3′ SEQ. ID NO: 2, and complementary strand 5′-CCCTTCCAGgaACCC-3′ SEQ. ID NO: 3, respectively. These probes were end-labeled by polynucleotide kinase and [γ-^32P]ATP. Binding reaction mixture containing 0.5 ng of labeled DNA (1,000 cpm), 2 μg of poly(dI-C), and 1-12 μg of protein in buffer containing 20 mM Hepes, 3% glycerol, 1.5 mM MgCl2, 1 mM DTT, 2 mM EDTA and 50 mM KCl, pH 7.5 was allowed to incubate at 4° C. for 30 min. The reactions were analyzed by electrophoresis on 8% polyacrylanide gel in 0.375× TBE ([…] Tris borate, pH 8.7 and 1.0 mM EDTA). After electrophoresis, the gels were dried and subjected to autoradiography. […] (FIG. 5B). The activation of STATs and the consequent binding to the St-domain in the angiotensinogen promoter accounts for the increase in transcription of angiotensinogen mRNA. […]

As to `N#C/C(=C\c1ccc(O)c(O)c1)C(=O)NCCCCc1ccccc1` [Tyrphostin AG556], the “cardioprotection / myocardial damage due to ischemia” value in assay [1] was “reduces myocardial damage due to ischemia”. Turning to `CCCCc1nc(Cl)c(CO)n1Cc1ccc(-c2ccccc2-c2nn[nH]n2)cc1` [losartan], the “angiotensinogen mRNA level” value with angiotensinogen mRNA is recorded as “reduced it almost entirely to the level of the control sample”. Moreover, in assay [2], the “St-domain/STAT binding activity (STAT/DNA complex formation)” value is recorded as “almost entirely abolished”.
